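Grown in 96-well plates, cells were treated for 48 hours with each compound at five concentrations. Insufficient inhibition: endpoint recorded as highest concentration tested. Definition used: TGI = concentration required for complete inhibition of growth.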
Key:
Assay in all cases: growth of human tumour cells (NCI), 48 h
[1] = test system: SK-MEL-2 melanoma
[2] = test system: TK-10 renal
[3] = test system: A549 NSCLC
[4] = test system: ACHN renal
[5] = test system: NCI-H23 lung
[6] = test system: NCI-H460 lung
[7] = test system: T-47D breast
[8] = test system: RXF 393 renal
[9] = test system: MDA-MB-231 breast
[10] = test system: SR leukemia
[11] = test system: SF-295 CNS
[12] = test system: SK-MEL-28 melanoma
[13] = test system: COLO 205 colon
[14] = test system: OVCAR-8 ovarian
[15] = test system: HS 578T breast
[16] = test system: UACC-62 melanoma
[17] = test system: CCRF-CEM leukemia
[18] = test system: LOX IMVI melanoma
[19] = test system: DU-145 prostate
[20] = test system: KM12 colon
[21] = test system: MCF7 breast
[22] = test system: SK-MEL-5 melanoma
[23] = test system: U251 CNS
[24] = test system: OVCAR-3 ovarian
[25] = test system: UO-31 renal
[26] = test system: SNB-19 CNS
[27] = test system: HL-60(TB) leukemia
[28] = test system: CAKI-1 renal
[29] = test system: SK-OV-3 ovarian
[30] = test system: HT29 colon
[31] = test system: SF-539 CNS
[32] = test system: UACC-257 melanoma
[33] = test system: IGROV1 ovarian
[34] = test system: HCC-2998 colon
[35] = test system: MOLT-4 leukemia
[36] = test system: MDA-N
[37] = test system: OVCAR-4 ovarian
[38] = test system: HOP-62 NSCLC
[39] = test system: MDA-MB-435
[40] = test system: SW-620 colon
[41] = test system: HCT-15 colon
[42] = test system: NCI/ADR-RES ovarian
[43] = test system: EKVX NSCLC
[44] = test system: NCI-H226 lung
[45] = test system: SN12C renal
[46] = test system: MALME-3M melanoma
[47] = test system: NCI-H522 lung
[48] = test system: A498 renal
[49] = test system: M14 melanoma
[50] = test system: OVCAR-5 ovarian
[51] = test system: SNB-75 CNS
[52] = test system: K-562 leukemia
[53] = test system: SF-268 CNS
[54] = test system: HOP-92 NSCLC
[55] = test system: PC-3 prostate
[56] = test system: RPMI-8226 leukemia
[57] = test system: BT-549 breast
[58] = test system: 786-0 renal
[59] = test system: HCT-116 colon

Cc1cc2c(cc1C)N1C(Cl)=C3CCCCC3=C(C#N)C1N2 (stereo unspecified)
TGI [1]: 29.2 µM
TGI [2]: 18.6 µM
TGI [3]: 45.8 µM
TGI [4]: 10.5 µM
TGI [5]: 14.2 µM
TGI [6]: 51.8 µM
TGI [7]: 28.3 µM
TGI [8]: 29 µM
TGI [9]: 30.1 µM
TGI [10]: > 100 µM
TGI [11]: 42.4 µM
TGI [12]: 10.6 µM
TGI [13]: 33.9 µM
TGI [14]: 32.9 µM
TGI [15]: > 100 µM
TGI [16]: 7.63 µM
TGI [17]: > 23.2 µM
TGI [18]: 4.37 µM
TGI [19]: 36.4 µM
TGI [20]: 24 µM
TGI [21]: 21.6 µM
TGI [22]: > 32.8 µM
TGI [23]: 24.6 µM
TGI [24]: 30.5 µM
TGI [25]: 17.7 µM
TGI [26]: 45.3 µM
TGI [27]: > 100 µM
TGI [28]: 12.3 µM
TGI [29]: 39.6 µM
TGI [30]: 6.94 µM
TGI [31]: 41.6 µM
TGI [32]: 22.3 µM
TGI [33]: 28.3 µM
TGI [34]: 22.4 µM
TGI [35]: > 42.9 µM
TGI [36]: 15.1 µM
TGI [37]: 31.7 µM
TGI [38]: 30.1 µM
TGI [39]: > 33.1 µM
TGI [40]: 4.39 µM
TGI [41]: 7.76 µM
TGI [42]: 14.5 µM
TGI [43]: 41.2 µM
TGI [44]: 30.5 µM
TGI [45]: 14.7 µM
TGI [46]: 34.6 µM
TGI [47]: 3.91 µM
TGI [48]: 33.8 µM
TGI [49]: 21.2 µM
TGI [50]: 36 µM
TGI [51]: 56.9 µM
TGI [52]: > 100 µM
TGI [53]: 60.4 µM
TGI [54]: > 30.4 µM
TGI [55]: 27.3 µM
TGI [56]: > 100 µM
TGI [57]: 8.46 µM
TGI [58]: 3.61 µM

C/C(=N\NC(=S)NCCNC(=S)N/N=C(\C)c1ccccn1)c1ccccn1
TGI [1]: > 100 µM
TGI [2]: > 30 µM
TGI [3]: > 100 µM
TGI [4]: > 28.5 µM
TGI [5]: > 63.8 µM
TGI [6]: > 20.2 µM
TGI [7]: > 29.3 µM
TGI [8]: > 100 µM
TGI [9]: > 70.9 µM
TGI [10]: 2.53 µM
TGI [11]: > 100 µM
TGI [12]: > 100 µM
TGI [13]: > 29.2 µM
TGI [14]: > 100 µM
TGI [15]: > 100 µM
TGI [16]: 11.7 µM
TGI [17]: > 26.1 µM
TGI [18]: 30.9 µM
TGI [19]: > 100 µM
TGI [20]: > 100 µM
TGI [21]: > 100 µM
TGI [23]: > 48.6 µM
TGI [24]: > 100 µM
TGI [25]: > 100 µM
TGI [26]: > 100 µM
TGI [27]: > 22.6 µM
TGI [28]: > 89.7 µM
TGI [29]: > 100 µM
TGI [30]: > 100 µM
TGI [31]: 6.63 µM
TGI [32]: 22.3 µM
TGI [33]: > 31.5 µM
TGI [34]: > 100 µM
TGI [35]: > 26 µM
TGI [36]: > 100 µM
TGI [37]: > 71.2 µM
TGI [38]: 12.5 µM
TGI [39]: > 100 µM
TGI [40]: > 100 µM
TGI [41]: > 25.9 µM
TGI [42]: 6.06 µM
TGI [43]: > 100 µM
TGI [44]: > 26.9 µM
TGI [45]: 7.31 µM
TGI [46]: > 78.8 µM
TGI [47]: > 100 µM
TGI [48]: 37.5 µM
TGI [49]: 4.27 µM
TGI [50]: > 100 µM
TGI [51]: 11.2 µM
TGI [52]: > 100 µM
TGI [53]: 49 µM
TGI [54]: > 100 µM
TGI [55]: > 100 µM
TGI [59]: 31.4 µM
TGI [56]: 9.67 µM
TGI [57]: 47.8 µM
TGI [58]: 6.05 µM

Cc1sccc1C(=S)Nc1ccc(Cl)c(/C=N/OC(C)(C)C)c1
TGI [1]: 28.8 µM
TGI [2]: 36.9 µM
TGI [3]: 63.5 µM
TGI [5]: 34.5 µM
TGI [7]: 22.8 µM
TGI [8]: 39 µM
TGI [9]: 27 µM
TGI [10]: 54.7 µM
TGI [11]: 37.3 µM
TGI [12]: 71 µM
TGI [13]: 27.3 µM
TGI [14]: 34.1 µM
TGI [15]: 62.3 µM
TGI [16]: 34.2 µM
TGI [17]: > 100 µM
TGI [18]: 73.9 µM
TGI [19]: 29 µM
TGI [20]: 28.8 µM
TGI [21]: 26.7 µM
TGI [22]: 25.9 µM
TGI [23]: 62.1 µM
TGI [24]: 26.8 µM
TGI [25]: 25 µM
TGI [27]: 38.6 µM
TGI [28]: 24.4 µM
TGI [29]: 79.3 µM
TGI [30]: 27.6 µM
TGI [31]: > 100 µM
TGI [32]: 35.1 µM
TGI [33]: 29.4 µM
TGI [34]: 30 µM
TGI [35]: 30.7 µM
TGI [36]: 26.9 µM
TGI [37]: 32 µM
TGI [38]: 30.6 µM
TGI [39]: 50.9 µM
TGI [40]: > 100 µM
TGI [41]: 29 µM
TGI [42]: 45.1 µM
TGI [43]: 42.4 µM
TGI [44]: 29.3 µM
TGI [45]: 25.6 µM
TGI [46]: 31.1 µM
TGI [47]: 26.5 µM
TGI [48]: 46.8 µM
TGI [49]: 33.9 µM
TGI [50]: 34.7 µM
TGI [51]: > 100 µM
TGI [53]: 43.9 µM
TGI [54]: 35.3 µM
TGI [55]: 32.5 µM
TGI [59]: > 100 µM
TGI [56]: 27 µM
TGI [57]: 35.2 µM
TGI [58]: 49.4 µM
